Assay results taken from ChEMBL document CHEMBL5137059, “An Intelligent Strategy with All-Atom Molecular Dynamics Simulations for the Design of Lipopeptides against Multidrug-Resistant Pseudomonas aeruginosa” (2022).
Converted amounts (≈) assume the structure as drawn. Positions of bridges follow the written chain, without caps; N, C: chain ends. Non-standard residues stand in square brackets, D forms with d. Residues, ends and D or L forms follow the SMILES beside them. *: point of attachment. Benzoyl(4-Ph) = O=C(c1ccc(-c2ccccc2)cc1)*; Bip = N[C@@H](Cc1ccc(-c2ccccc2)cc1)C(=O)O; dBip = N[C@H](Cc1ccc(-c2ccccc2)cc1)C(=O)O; dGly(nOct) = CCCCCCCC[C@@H](N)C(=O)O; Gly(octyl) = CCCCCCCC[C@H](N)C(=O)O; Octanoyl = CCCCCCCC(=O)*; Dab = NCC[C@H](N)C(=O)O; Bn = c1ccc(C*)cc1

How the values were obtained:
Assay type in all cases: functional
[1] = system: Pseudomonas aeruginosa; experiment: Antimicrobial activity against polymyxin resistant Pseudomonas aeruginosa FADDI-PA070 assessed as microbial growth inhibition measured at 18 to 20 hrs by broth microdilution assay; details: time 18-20 hrs
[2] = system: Pseudomonas aeruginosa; experiment: Antimicrobial activity against polymyxin resistant Pseudomonas aeruginosa FADDI-PA060 assessed as microbial growth inhibition measured at 18 to 20 hrs by broth microdilution assay; details: time 18-20 hrs
[3] = system: Pseudomonas aeruginosa; experiment: Disruption of membrane integrity in polymyxin resistant Pseudomonas aeruginosa FADDI-071 assessed as fold increase by measuring cellular fluorescence intensity at 8 mg/L incubated for 4 hrs by DiBAC and PI staining based flow cytometry analysis
[4] = system: Pseudomonas aeruginosa; experiment: Antimicrobial activity against polymyxin resistant Pseudomonas aeruginosa FADDI-PA065 assessed as microbial growth inhibition measured after 20 hrs by CLSI-protocol based broth microdilution assay
[5] = system: Pseudomonas aeruginosa; experiment: Disruption of membrane integrity in polymyxin resistant Pseudomonas aeruginosa FADDI-PA065 assessed as fold increase by measuring cellular fluorescence intensity at 8 mg/L incubated for 4 hrs by DiBAC and PI staining based flow cytometry analysis
[6] = system: Pseudomonas aeruginosa; experiment: Antimicrobial activity against Pseudomonas aeruginosa PAO1R assessed as microbial growth inhibition measured after 20 hrs by CLSI-protocol based broth microdilution assay
[7] = system: Pseudomonas aeruginosa; experiment: Antimicrobial activity against Pseudomonas aeruginosa PW7028 assessed as microbial growth inhibition measured after 20 hrs by CLSI-protocol based broth microdilution assay
[8] = system: Pseudomonas aeruginosa; experiment: Antimicrobial activity against polymyxin resistant Pseudomonas aeruginosa FADDI-PA071 assessed as microbial growth inhibition measured after 20 hrs by CLSI-protocol based broth microdilution assay
[9] = system: Pseudomonas aeruginosa; experiment: Antimicrobial activity against Pseudomonas aeruginosa PAO1 assessed as microbial growth inhibition measured after 20 hrs by CLSI-protocol based broth microdilution assay

| Compound | MIC [1] [mg/L] | MIC [2] [mg/L] | fold change (FC) [3] | MIC [4] [mg/L] | fold change (FC) [5] | MIC [6] [mg/L] | MIC [7] [mg/L] | MIC [8] [mg/L] | MIC [9] [mg/L] |
| --- | --- | --- | --- | --- | --- | --- | --- | --- | --- |
| C[C@@H](O)[C@@H]1NC(=O)[C@H](CCN)NC(=O)[C@H](CCN)NC(=O)[C@H](Cc2ccc(-c3ccccc3)cc2)NC(=O)[C@@H](Cc2ccccc2)NC(=O)[C@H](CCN)NC(=O)[C@@H](NC(=O)[C@H](CCN)NC(=O)[C@@H](NC(=O)[C@H](CCN)NC(=O)c2ccc(-c3ccccc3)cc2)[C@@H](C)O)CCNC1=O ({Benzoyl(4-Ph)}-[Dab]T[Dab][Dab][Dab][dF][Bip][Dab][Dab]T; lactam 4-C) | 16 (≈ 11.8 µM) | 8 (≈ 5.91 µM) | – | – | – | – | – | – | – |
| CCCCCCCC[C@@H]1NC(=O)[C@@H](Cc2ccccc2)NC(=O)[C@H](CCN)NC(=O)[C@@H](NC(=O)[C@H](CCN)NC(=O)[C@@H](NC(=O)[C@H](CCN)NC(=O)CCCCCCC)[C@@H](C)O)CCNC(=O)[C@H]([C@@H](C)O)NC(=O)[C@H](CCN)NC(=O)[C@H](CCN)NC1=O (Octanoyl-[Dab]T[Dab][Dab][Dab][dF][Gly(octyl)][Dab][Dab]T; lactam 4-C) | 4 (≈ 3.21 µM) | 2 (≈ 1.61 µM) | 19.6 | 1 (≈ 0.803 µM) | 19.6 | 8 (≈ 6.42 µM) | 2 (≈ 1.61 µM) | 4 (≈ 3.21 µM) | 4 (≈ 3.21 µM) |
| CCCCCCCC(=O)N[C@@H](CCN)C(=O)N[C@H](C(=O)N[C@@H](CCN)C(=O)N[C@H]1CCNC(=O)[C@H]([C@@H](C)O)NC(=O)[C@H](CCN)NC(=O)[C@H](CCN)NC(=O)[C@H](Cc2ccccc2)NC(=O)[C@@H](Cc2ccccc2)NC(=O)[C@H](CCN)NC1=O)[C@@H](C)O | > 32 | > 32 | – | – | – | – | – | – | – |
| CCCCCCCC(=O)N[C@@H](CCN)C(=O)N[C@H](C(=O)N[C@@H](CCN)C(=O)N[C@H]1CCNC(=O)[C@H]([C@@H](C)O)NC(=O)[C@H](CCN)NC(=O)[C@H](CCN)NC(=O)[C@H](CSCc2ccccc2)NC(=O)[C@@H](Cc2ccccc2)NC(=O)[C@H](CCN)NC1=O)[C@@H](C)O (Octanoyl-[Dab]T[Dab][Dab][Dab][dF]C(Bn)[Dab][Dab]T; lactam 4-C) | > 32 | 32 (≈ 25.2 µM) | – | – | – | – | – | – | – |
| CCCCCCCC(=O)N[C@@H](CCN)C(=O)N[C@H](C(=O)N[C@@H](CCN)C(=O)N[C@H]1CCNC(=O)[C@H]([C@@H](C)O)NC(=O)[C@H](CCN)NC(=O)[C@H](CCN)NC(=O)[C@H](Cc2ccc(-c3ccccc3)cc2)NC(=O)[C@@H](Cc2ccccc2)NC(=O)[C@H](CCN)NC1=O)[C@@H](C)O (Octanoyl-[Dab]T[Dab][Dab][Dab][dF][Bip][Dab][Dab]T; lactam 4-C) | 4 (≈ 3.08 µM) | 8 (≈ 6.16 µM) | – | – | – | – | – | – | – |
| COLISTIN | > 128 | > 128 | 2.33 | > 128 | 2.33 | > 32 | 1 | > 128 | 2 |
| CCCCCCCC[C@H]1NC(=O)[C@H](CCN)NC(=O)[C@@H](NC(=O)[C@H](CCN)NC(=O)[C@@H](NC(=O)[C@H](CCN)NC(=O)CCCCCCC)[C@@H](C)O)CCNC(=O)[C@H]([C@@H](C)O)NC(=O)[C@H](CCN)NC(=O)[C@H](CCN)NC(=O)[C@H](CC(C)C)NC1=O (Octanoyl-[Dab]T[Dab][Dab][Dab][dGly(nOct)]L[Dab][Dab]T; lactam 4-C) | 2 (≈ 1.65 µM) | 2 (≈ 1.65 µM) | 18.8 | 2 (≈ 1.65 µM) | 18.8 | 8 (≈ 6.6 µM) | 4 (≈ 3.3 µM) | 4 (≈ 3.3 µM) | 4 (≈ 3.3 µM) |
| CCCCCCCC[C@H]1NC(=O)[C@H](CCN)NC(=O)[C@@H](NC(=O)[C@H](CCN)NC(=O)[C@@H](NC(=O)[C@H](CCN)NC(=O)c2ccccc2)[C@@H](C)O)CCNC(=O)[C@H]([C@@H](C)O)NC(=O)[C@H](CCN)NC(=O)[C@H](CCN)NC(=O)[C@H](CC(C)C)NC1=O | 32 (≈ 26.9 µM) | 32 (≈ 26.9 µM) | – | – | – | – | – | – | – |
| CCCCCCCC(=O)N[C@@H](CCN)C(=O)N[C@H](C(=O)N[C@@H](CCN)C(=O)N[C@H]1CCNC(=O)[C@H]([C@@H](C)O)NC(=O)[C@H](CCN)NC(=O)[C@H](CCN)NC(=O)[C@H](CC(C)C)NC(=O)[C@@H](Cc2ccc(-c3ccccc3)cc2)NC(=O)[C@H](CCN)NC1=O)[C@@H](C)O (Octanoyl-[Dab]T[Dab][Dab][Dab][dBip]L[Dab][Dab]T; lactam 4-C) | 4 (≈ 3.16 µM) | 8 (≈ 6.32 µM) | – | – | – | – | – | – | – |
